{
  "source": "patent US9492471B2",
  "about": "“Methods of treating a disease or disorder associated with Bruton'S Tyrosine Kinase” (Celgene Avilomics Research, Inc., priority 2013, dated 2016)",
  "assay_in_all_cases": "HotSpot kinase profiling",
  "type_in_all_cases": "biochemical",
  "key": {"[1]": {"biological_target": "T1, AKT2 (Homo sapiens, UniProt P31751)", "T1 construct": "purchased Reaction Biology Corp", "T1 sequence (P31751 whole entry)": "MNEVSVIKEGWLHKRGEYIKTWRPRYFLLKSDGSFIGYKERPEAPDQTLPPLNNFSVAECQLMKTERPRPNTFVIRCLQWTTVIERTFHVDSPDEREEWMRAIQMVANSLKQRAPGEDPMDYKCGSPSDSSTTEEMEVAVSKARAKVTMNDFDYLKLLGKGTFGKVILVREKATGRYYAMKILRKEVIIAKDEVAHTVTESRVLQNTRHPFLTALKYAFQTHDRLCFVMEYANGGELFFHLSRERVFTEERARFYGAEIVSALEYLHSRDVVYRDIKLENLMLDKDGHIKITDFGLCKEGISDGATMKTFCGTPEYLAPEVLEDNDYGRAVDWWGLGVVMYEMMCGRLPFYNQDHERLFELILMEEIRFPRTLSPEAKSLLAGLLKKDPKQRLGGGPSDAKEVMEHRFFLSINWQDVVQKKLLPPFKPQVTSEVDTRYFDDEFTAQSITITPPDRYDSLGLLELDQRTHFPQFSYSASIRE", "method_in_brief": "(§1)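 Activity is measured by radiolabel transfer captured on P81 filters after a 2 h room-temperature reaction of kinase, substrate and cofactors. Values are percent inhibition against DMSO.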"}, "[2]": {"biological_target": "T2, NEK9 (Homo sapiens, UniProt Q8TD19)", "T2 construct": "purchased Reaction Biology Corp", "T2 sequence (Q8TD19 1-979)": "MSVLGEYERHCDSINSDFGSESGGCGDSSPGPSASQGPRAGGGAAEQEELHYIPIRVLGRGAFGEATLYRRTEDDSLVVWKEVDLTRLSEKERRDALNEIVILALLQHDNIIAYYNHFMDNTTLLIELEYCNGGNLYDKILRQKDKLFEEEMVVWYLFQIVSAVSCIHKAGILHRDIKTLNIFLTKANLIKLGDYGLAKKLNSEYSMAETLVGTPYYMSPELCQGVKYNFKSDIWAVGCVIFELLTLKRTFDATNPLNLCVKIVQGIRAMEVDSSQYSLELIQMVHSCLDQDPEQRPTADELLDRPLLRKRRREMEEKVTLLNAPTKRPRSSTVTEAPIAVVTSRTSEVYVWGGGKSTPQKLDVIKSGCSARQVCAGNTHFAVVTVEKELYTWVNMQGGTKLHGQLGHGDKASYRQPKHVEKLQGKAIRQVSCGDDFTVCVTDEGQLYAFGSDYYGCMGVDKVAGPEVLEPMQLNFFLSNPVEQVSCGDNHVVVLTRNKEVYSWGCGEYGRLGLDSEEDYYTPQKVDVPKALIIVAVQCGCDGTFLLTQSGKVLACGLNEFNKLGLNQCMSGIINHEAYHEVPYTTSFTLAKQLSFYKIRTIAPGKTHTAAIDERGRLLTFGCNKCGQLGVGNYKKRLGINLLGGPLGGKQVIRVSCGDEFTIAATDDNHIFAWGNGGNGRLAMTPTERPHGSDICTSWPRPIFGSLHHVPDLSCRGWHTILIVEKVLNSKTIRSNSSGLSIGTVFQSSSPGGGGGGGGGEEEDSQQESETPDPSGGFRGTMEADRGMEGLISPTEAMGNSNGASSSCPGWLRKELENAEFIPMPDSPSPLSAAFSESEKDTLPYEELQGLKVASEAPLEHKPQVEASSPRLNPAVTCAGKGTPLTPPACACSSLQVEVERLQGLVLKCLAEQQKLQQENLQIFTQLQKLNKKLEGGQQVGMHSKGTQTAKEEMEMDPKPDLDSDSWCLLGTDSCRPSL", "method_in_brief": "as §1"}, "[3]": {"biological_target": "T3, ROS/ROS1 (Homo sapiens, UniProt P08922)", "T3 construct": "purchased Reaction Biology Corp", "T3 sequence (P08922 28-2347)": "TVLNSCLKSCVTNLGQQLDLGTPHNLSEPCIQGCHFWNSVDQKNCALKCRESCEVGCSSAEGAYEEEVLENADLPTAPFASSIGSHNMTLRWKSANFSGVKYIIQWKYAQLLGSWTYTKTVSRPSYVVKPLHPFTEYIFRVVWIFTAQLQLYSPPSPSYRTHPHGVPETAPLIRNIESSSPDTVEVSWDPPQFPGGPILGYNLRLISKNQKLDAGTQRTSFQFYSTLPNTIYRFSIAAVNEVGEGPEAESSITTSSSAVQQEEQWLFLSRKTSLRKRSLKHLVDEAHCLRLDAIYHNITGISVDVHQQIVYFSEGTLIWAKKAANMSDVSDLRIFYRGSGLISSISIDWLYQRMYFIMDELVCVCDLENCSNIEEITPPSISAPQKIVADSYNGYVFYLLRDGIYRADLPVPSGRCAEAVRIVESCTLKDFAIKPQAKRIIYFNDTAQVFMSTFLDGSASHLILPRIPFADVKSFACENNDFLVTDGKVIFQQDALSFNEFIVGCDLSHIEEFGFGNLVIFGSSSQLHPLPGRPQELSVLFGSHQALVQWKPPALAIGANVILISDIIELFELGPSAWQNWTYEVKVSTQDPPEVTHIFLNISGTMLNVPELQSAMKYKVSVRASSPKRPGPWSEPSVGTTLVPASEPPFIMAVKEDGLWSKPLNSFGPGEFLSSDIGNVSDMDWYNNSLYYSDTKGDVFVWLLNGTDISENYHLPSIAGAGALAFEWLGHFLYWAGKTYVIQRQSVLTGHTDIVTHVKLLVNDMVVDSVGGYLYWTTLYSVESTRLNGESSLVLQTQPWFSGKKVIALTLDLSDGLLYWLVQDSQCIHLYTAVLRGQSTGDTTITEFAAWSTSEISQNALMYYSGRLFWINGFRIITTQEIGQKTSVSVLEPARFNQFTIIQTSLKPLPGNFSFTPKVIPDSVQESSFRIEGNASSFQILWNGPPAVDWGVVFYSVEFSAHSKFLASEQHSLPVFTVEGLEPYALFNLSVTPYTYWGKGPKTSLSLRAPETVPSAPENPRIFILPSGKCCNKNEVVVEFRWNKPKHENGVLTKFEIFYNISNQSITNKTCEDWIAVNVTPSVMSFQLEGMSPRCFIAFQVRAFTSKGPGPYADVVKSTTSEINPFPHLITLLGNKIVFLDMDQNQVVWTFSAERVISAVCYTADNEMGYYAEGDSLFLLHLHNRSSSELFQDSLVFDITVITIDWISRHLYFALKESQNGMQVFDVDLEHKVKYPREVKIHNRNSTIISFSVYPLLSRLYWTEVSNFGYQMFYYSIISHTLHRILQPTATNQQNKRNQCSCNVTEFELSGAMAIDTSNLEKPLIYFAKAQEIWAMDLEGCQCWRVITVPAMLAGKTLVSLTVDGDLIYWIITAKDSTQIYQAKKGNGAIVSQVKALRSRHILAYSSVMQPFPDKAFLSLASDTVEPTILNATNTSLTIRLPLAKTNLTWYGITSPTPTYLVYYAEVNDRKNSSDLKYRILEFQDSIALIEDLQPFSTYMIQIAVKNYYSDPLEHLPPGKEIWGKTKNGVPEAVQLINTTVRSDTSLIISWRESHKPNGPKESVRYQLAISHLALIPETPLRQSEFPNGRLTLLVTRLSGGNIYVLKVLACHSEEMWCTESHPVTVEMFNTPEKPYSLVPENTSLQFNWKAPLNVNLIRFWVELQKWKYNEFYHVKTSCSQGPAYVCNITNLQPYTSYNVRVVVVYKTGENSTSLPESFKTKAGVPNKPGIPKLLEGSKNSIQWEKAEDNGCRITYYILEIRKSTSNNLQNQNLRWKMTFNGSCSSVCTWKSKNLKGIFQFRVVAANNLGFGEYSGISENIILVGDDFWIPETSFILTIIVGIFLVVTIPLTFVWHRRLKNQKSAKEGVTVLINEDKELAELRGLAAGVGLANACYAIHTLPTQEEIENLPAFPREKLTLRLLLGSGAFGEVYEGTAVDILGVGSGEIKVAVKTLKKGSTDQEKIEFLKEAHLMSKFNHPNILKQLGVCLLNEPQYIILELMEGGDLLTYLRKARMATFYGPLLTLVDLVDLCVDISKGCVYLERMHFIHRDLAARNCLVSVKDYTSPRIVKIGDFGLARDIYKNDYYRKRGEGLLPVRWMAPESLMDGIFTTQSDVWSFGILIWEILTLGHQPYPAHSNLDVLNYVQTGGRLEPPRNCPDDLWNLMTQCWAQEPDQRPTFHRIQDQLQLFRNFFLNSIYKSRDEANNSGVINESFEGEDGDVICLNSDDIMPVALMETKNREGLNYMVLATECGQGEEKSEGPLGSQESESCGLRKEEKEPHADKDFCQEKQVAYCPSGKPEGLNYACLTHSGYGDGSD", "method_in_brief": "as §1"}, "[4]": {"biological_target": "T4, PKCb1 (Homo sapiens, UniProt P05771)", "T4 construct": "purchased Reaction Biology Corp", "method_in_brief": "as §1"}, "[5]": {"biological_target": "T5, CDK2/cyclin A (Homo sapiens, UniProt P24941)", "T5 construct": "purchased Reaction Biology Corp", "method_in_brief": "as §1"}, "[6]": {"biological_target": "T6, GRK2 (Homo sapiens, UniProt P25098)", "T6 construct": "purchased Reaction Biology Corp", "T6 sequence (P25098 1-689)": "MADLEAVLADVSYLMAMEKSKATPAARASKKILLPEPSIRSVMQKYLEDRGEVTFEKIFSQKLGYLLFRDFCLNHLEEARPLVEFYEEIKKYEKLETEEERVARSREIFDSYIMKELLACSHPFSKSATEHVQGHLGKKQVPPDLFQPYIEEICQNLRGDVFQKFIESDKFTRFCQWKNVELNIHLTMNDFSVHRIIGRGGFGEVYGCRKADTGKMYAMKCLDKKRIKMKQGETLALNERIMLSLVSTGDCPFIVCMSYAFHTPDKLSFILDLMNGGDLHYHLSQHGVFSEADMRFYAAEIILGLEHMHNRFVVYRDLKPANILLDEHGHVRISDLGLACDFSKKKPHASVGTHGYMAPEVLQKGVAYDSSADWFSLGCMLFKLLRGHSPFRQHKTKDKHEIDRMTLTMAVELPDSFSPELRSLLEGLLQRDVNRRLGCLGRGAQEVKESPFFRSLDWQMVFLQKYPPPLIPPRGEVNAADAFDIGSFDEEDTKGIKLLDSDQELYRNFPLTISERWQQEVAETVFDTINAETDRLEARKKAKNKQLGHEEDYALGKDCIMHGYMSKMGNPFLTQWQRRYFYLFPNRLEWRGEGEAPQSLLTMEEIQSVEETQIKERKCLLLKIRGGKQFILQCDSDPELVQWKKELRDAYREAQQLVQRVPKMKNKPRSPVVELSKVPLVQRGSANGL", "method_in_brief": "as §1"}, "[7]": {"biological_target": "T7, MARK1 (Homo sapiens, UniProt Q9P0L2)", "T7 construct": "purchased Reaction Biology Corp", "T7 sequence (Q9P0L2 whole entry)": "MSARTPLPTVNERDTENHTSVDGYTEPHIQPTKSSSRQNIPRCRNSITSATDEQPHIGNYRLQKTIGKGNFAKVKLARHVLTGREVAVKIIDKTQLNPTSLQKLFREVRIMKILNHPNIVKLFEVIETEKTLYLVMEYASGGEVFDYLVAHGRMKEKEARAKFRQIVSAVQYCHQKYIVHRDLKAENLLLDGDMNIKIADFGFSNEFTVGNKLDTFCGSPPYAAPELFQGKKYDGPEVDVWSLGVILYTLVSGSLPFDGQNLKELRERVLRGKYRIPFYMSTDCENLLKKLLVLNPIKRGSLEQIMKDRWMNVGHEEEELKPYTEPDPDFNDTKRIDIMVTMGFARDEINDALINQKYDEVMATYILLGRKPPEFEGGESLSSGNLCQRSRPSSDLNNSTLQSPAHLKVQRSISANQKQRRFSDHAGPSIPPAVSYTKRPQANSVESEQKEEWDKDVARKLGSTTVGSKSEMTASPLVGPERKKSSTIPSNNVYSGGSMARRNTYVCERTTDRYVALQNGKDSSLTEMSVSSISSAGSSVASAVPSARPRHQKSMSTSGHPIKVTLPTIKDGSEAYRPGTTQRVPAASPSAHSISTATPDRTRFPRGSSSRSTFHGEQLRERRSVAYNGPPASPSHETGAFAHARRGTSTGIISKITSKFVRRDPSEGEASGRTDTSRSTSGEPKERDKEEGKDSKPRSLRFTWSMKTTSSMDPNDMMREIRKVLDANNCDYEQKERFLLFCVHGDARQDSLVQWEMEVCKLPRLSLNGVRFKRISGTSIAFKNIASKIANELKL", "method_in_brief": "as §1"}, "[8]": {"biological_target": "T8, PKCg (Homo sapiens, UniProt P05129)", "T8 construct": "purchased Reaction Biology Corp", "method_in_brief": "as §1"}, "[9]": {"biological_target": "T9, CK1g1 (Homo sapiens, UniProt Q9HCP0)", "T9 construct": "purchased Reaction Biology Corp", "T9 sequence (Q9HCP0 whole entry)": "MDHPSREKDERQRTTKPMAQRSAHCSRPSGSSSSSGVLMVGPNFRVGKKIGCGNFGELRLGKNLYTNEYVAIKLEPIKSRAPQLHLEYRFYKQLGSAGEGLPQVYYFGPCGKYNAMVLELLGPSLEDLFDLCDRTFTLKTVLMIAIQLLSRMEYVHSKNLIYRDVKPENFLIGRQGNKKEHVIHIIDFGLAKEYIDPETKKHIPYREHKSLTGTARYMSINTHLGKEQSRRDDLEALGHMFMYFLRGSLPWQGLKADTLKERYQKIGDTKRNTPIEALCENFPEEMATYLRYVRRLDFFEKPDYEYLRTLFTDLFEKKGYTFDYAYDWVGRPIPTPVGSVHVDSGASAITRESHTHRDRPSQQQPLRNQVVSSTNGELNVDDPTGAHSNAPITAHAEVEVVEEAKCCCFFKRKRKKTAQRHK", "method_in_brief": "as §1"}, "[10]": {"biological_target": "T10, CAMK1g (Homo sapiens, UniProt Q96NX5)", "T10 construct": "purchased Reaction Biology Corp", "method_in_brief": "as §1"}, "[11]": {"conditions": "read-out: % Enzyme Activity (relative to DMSO controls) Run 1"}, "[12]": {"conditions": "read-out: % Enzyme Activity (relative to DMSO controls) Run 2"}},
  "note": "Where two headings read alike, the source gives them in different places.",
  "data": [
    {"smiles": "C=CC(=O)Nc1cccc(Nc2nc(Nc3ccc(OCCOC)c(F)c3)ncc2F)c1", "note": "[Compound 2]", "values": [
      {"measurement": "inhibition at 3 µM", "setting": "[1]", "value": 4.23, "unit": "%"},
      {"measurement": "remaining activity at 3 µM", "setting": "[1]; [11]", "value": 93.7, "unit": "%"},
      {"measurement": "remaining activity at 3 µM", "setting": "[1]; [12]", "value": 97.9, "unit": "%"},
      {"measurement": "inhibition at 3 µM", "setting": "[2]", "value": 15.9, "unit": "%"},
      {"measurement": "remaining activity at 3 µM", "setting": "[2]; [11]", "value": 83.8, "unit": "%"},
      {"measurement": "remaining activity at 3 µM", "setting": "[2]; [12]", "value": 84.3, "unit": "%"},
      {"measurement": "inhibition at 3 µM", "setting": "[3]", "value": 86.6, "unit": "%"},
      {"measurement": "remaining activity at 3 µM", "setting": "[3]; [11]", "value": 13.5, "unit": "%"},
      {"measurement": "remaining activity at 3 µM", "setting": "[3]; [12]", "value": 13.3, "unit": "%"},
      {"measurement": "inhibition at 3 µM", "setting": "[4]", "value": 27.6, "unit": "%"},
      {"measurement": "remaining activity at 3 µM", "setting": "[4]; [11]", "value": 72.7, "unit": "%"},
      {"measurement": "remaining activity at 3 µM", "setting": "[4]; [12]", "value": 72.1, "unit": "%"},
      {"measurement": "inhibition at 3 µM", "setting": "[5]", "value": 13.7, "unit": "%"},
      {"measurement": "remaining activity at 3 µM", "setting": "[5]; [11]", "value": 85.8, "unit": "%"},
      {"measurement": "remaining activity at 3 µM", "setting": "[5]; [12]", "value": 86.9, "unit": "%"},
      {"measurement": "inhibition at 3 µM", "setting": "[6]", "value": -4.03, "unit": "%"},
      {"measurement": "remaining activity at 3 µM", "setting": "[6]; [11]", "value": 104, "unit": "%"},
      {"measurement": "remaining activity at 3 µM", "setting": "[6]; [12]", "value": 104, "unit": "%"},
      {"measurement": "inhibition at 3 µM", "setting": "[7]", "value": 5.86, "unit": "%"},
      {"measurement": "remaining activity at 3 µM", "setting": "[7]; [11]", "value": 90.9, "unit": "%"},
      {"measurement": "remaining activity at 3 µM", "setting": "[7]; [12]", "value": 97.3, "unit": "%"},
      {"measurement": "inhibition at 3 µM", "setting": "[8]", "value": 16, "unit": "%"},
      {"measurement": "remaining activity at 3 µM", "setting": "[8]; [11]", "value": 83.9, "unit": "%"},
      {"measurement": "remaining activity at 3 µM", "setting": "[8]; [12]", "value": 84.2, "unit": "%"},
      {"measurement": "inhibition at 3 µM", "setting": "[9]", "value": 10.5, "unit": "%"},
      {"measurement": "remaining activity at 3 µM", "setting": "[9]; [11]", "value": 88.8, "unit": "%"},
      {"measurement": "remaining activity at 3 µM", "setting": "[9]; [12]", "value": 90.3, "unit": "%"},
      {"measurement": "inhibition at 3 µM", "setting": "[10]", "value": -0.72, "unit": "%"},
      {"measurement": "remaining activity at 3 µM", "setting": "[10]; [11]", "value": 100, "unit": "%"},
      {"measurement": "remaining activity at 3 µM", "setting": "[10]; [12]", "value": 101, "unit": "%"}
    ]}
  ]
}
